One assay deals with human P2X3 receptor (Homo sapiens (Human), UniProt P56373). Briefly: Intracellular calcium measurement (FLIPR, Fluo-4) of antagonist activity at human P2X3 receptors. Type of assay: cell-based. The following applies: read-out: hP2X3 IC50. The essentials: (§1)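 Antagonism quantified from peak calcium fluorescence (Fluo-4, FLIPR, 90 sec read) evoked by EC80 α,β-Me-ATP, after a 30 min, 37° C. compound pretreatment in 1% DMSO. Human P2X3- or P2X2/3-expressing cells used; triplicate means fitted for IC50, percent maximal inhibition and Hill coefficient.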
Sequence of human P2X3 receptor (P56373 whole entry): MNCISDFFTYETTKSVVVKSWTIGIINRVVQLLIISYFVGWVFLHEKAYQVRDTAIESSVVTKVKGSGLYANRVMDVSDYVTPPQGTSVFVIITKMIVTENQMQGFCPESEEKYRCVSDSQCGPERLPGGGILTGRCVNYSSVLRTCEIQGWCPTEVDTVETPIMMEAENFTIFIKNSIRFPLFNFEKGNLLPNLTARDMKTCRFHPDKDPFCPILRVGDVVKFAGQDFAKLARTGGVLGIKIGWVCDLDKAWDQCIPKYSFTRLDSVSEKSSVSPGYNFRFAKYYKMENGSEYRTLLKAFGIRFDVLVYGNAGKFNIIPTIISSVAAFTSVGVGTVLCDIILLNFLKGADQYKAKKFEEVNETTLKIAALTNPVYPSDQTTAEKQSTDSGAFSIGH
In general terms: Calcium flux is commonly read through the fluorescence of an indicator in the cells.

The next assay addresses human P2X2/3 receptor (Homo sapiens (Human), UniProt P56373+Q9UBL9). As to the kind of experiment: Intracellular calcium measurement (FLIPR, Fluo-4) of antagonist activity at human P2X2/3 receptors. Type of assay: cell-based. The following applies: human P2X2/3, FLIPR calcium assay, agonist α,β-Me-ATP; read-out: hP2X2/3 IC50. The essentials:
as §1

Setting [1] is: human P2X3, FLIPR calcium assay, agonist α,β-Me-ATP.

pIC50: −log10 of the molar value. Read-outs that look alike come from different tables or passages of the source. Where only a bound is given, the exact number is not on record here.

Sequence of human P2X2/3 receptor (P56373 whole entry): as above
Sequence of human P2X2/3 receptor (Q9UBL9 whole entry): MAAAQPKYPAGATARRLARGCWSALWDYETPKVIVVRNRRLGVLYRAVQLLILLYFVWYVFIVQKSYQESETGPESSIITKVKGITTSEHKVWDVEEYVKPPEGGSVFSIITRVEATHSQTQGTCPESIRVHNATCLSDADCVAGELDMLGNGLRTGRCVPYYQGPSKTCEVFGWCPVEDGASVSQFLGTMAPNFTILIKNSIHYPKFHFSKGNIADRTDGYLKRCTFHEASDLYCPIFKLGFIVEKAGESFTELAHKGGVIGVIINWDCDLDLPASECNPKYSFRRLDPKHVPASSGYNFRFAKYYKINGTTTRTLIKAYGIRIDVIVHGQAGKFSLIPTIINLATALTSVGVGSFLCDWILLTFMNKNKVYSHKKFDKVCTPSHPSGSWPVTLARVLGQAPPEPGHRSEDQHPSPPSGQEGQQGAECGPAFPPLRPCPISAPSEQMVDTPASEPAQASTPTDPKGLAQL

As for `Cc1cnc(-c2cc(OC[C@H]3CN(C)CCO3)cc(C(=O)N[C@H](C)c3ccc(C(F)(F)F)nc3)c2)s1` [Example 366, 3-{[(2R)-4-methylmorpholin-2-yl]methoxyl}-5-(5-methyl-1,3-thiazol-2-yl)-N-{(1R)-1-[6-(trifluoromethyl)pyridin-3-yl]ethyl}benzamide], the pIC50 was 7.74 at human P2X3 receptor (setting [1]) and 6.01 on human P2X2/3 receptor.

Regarding `C#CCOc1cc(C(=O)N[C@H](C)c2cnc(C(F)(F)F)nc2)cc(-c2ncc(C)s2)c1` [Example 36, 3-(5-Methyl-1,3-thiazol-2-yl)-5-(prop-2-yn-1-yloxy)-N-{(1R)-1-[2-(trifluoromethyl)pyrimidin-5-yl]ethyl}benzamide], the pIC50 on human P2X3 receptor (setting [1]) is 7.85; at human P2X2/3 receptor, 6.51.

Regarding `Cc1cnc(-c2cc(OC3COC3)cc(C(=O)NC(C)c3nnc(C(F)(F)F)s3)c2)s1` (single isomer, unassigned) [Example 194, 3-(5-Methyl-1,3-thiazol-2-yl)-5-(oxetan-3-yloxy)-N-{1-[5-(trifluoromethyl)-1,3,4-thiadiazol-2-yl]ethyl}benzamide], the figures for the pIC50 at human P2X3 receptor (setting [1]) and on human P2X2/3 receptor were 7.34 and 6.24, respectively.

For `Cc1cnc(-c2cc(Oc3nnc(C)s3)cc(C(=O)N[C@H](C)c3ccc(C(F)(F)F)nc3)c2)s1` [Example 176, 3-[(5-methyl-1,3,4-thiadiazol-2-yl)oxy]-5-(5-methyl-1,3-thiazol-2-yl)-N-{(1R)-1-[6-(trifluoromethyl)pyridin-3-yl]ethyl}benzamide], the pIC50 at human P2X3 receptor (setting [1]) is 7.54; on human P2X2/3 receptor, 6.22.

For `Cc1cnc(-c2cc(O[C@@H]3CCOC3)cc(C(=O)N[C@H](C)c3ccc(C(F)(F)F)nn3)c2)s1` [Example 19, 3-(5-Methyl-1,3-thiazol-2-yl)-5-[(3R)-tetrahydrofuran-3-yloxy]-N-{(1R)-1-[6-(trifluoromethyl)pyridazin-3-yl]ethyl}benzamide], the pIC50 at human P2X3 receptor (setting [1]) is 7.72; at human P2X2/3 receptor it was 6.13.

Consider `Cc1cnc(-c2cc(OC3CCNCC3F)cc(C(=O)N[C@H](C)c3cnc(C(F)(F)F)nc3)c2)s1` (stereo partly drawn) [Example 204, 3-{[3-fluoropiperidin-4-yl]oxy}-5-(5-methyl-1,3-thiazol-2-yl)-N-{(1R)-1-[2-(trifluoromethyl)pyrimidin-5-yl]ethyl} benzamide], for which the pIC50 at human P2X3 receptor (setting [1]) is 8.15; at human P2X2/3 receptor it was 7.09.

Regarding `Cc1cnc(-c2cc(OC3CCN(CC(F)(F)F)CC3)cc(C(=O)N[C@H](C)c3ccc(C(F)(F)F)nn3)c2)s1` [Example 312, 3-(5-methyl-1,3-thiazol-2-yl)-5-{[1-(2,2,2-trifluoroethyl)piperidin-4-yl]oxy}-N-{(1R)-1-[6-(trifluoromethyl)pyridazin-3-yl]ethyl}benzamide], the figures for the pIC50 at human P2X3 receptor (setting [1]) and on human P2X2/3 receptor were 8.05 and 7.08, respectively.

For `C[C@@H](NC(=O)c1cc(OC[C@H]2CCOC2)cc(-c2ncc(Cl)s2)c1)c1cnc(C(F)(F)F)nc1` [Example 323, 3-(5-chloro-1,3-thiazol-2-yl)-5-[(3S)-tetrahydrofuran-3-ylmethoxy]-N-{(1R)-1-[2-(trifluoromethyl)pyrimidin-5-yl]ethyl}benzamide], the pIC50 is 7.60 on human P2X3 receptor (setting [1]) and 6.39 on human P2X2/3 receptor.

`COc1ccc([C@@H](C)NC(=O)c2cc(OC3CCOCC3)cc(-c3ncc(C)s3)c2)cn1` [Example 86, N-[(1R)-1-(6-Methoxypyridin-3-yl)ethyl]-3-(5-methyl-1,3-thiazol-2-yl)-5-(tetrahydro-2H-pyran-4-yloxy)benzamide]: the pIC50 at human P2X3 receptor (setting [1]) was 7.92; at human P2X2/3 receptor it was 6.84.

For the molecule `Cc1ccc(CNC(=O)c2cc(OC[C@H]3CCOC3)cc(-c3ncc(C4CCC4)s3)c2)nn1` [Example 122, 3-(5-Cyclobutyl-1,3-thiazol-2-yl)-N-[(6-methylpyridazin-3-yl)methyl]-5-[(3S)-tetrahydrofuran-3-ylmethoxy]benzamide], the pIC50 at human P2X3 receptor (setting [1]) is 6.97; on human P2X2/3 receptor it was 5.93.

For `CCc1cnc(-c2cc(OC[C@@H]3CCCO3)cc(C(=O)N[C@H](C)c3cnc(C(F)(F)F)nc3)c2)s1` [Example 284, 3-(5-ethyl-1,3-thiazol-2-yl)-5-[(2S)-tetrahydrofuran-2-ylmethoxy]-N-{(1R)-1-[2-(trifluoromethyl)pyrimidin-5-yl]ethyl}benzamide], the values for the pIC50 on human P2X3 receptor (setting [1]) and on human P2X2/3 receptor were 8.40 and 7.24, respectively.

Consider `C[C@@H](NC(=O)c1cc(OC[C@@H]2CCOC2)cc(-c2ncc(C3CCC3)s2)c1)c1ccc(C(F)(F)F)nn1` [Example 297, 3-(5-cyclobutyl-1,3-thiazol-2-yl)-5-[(3R)-tetrahydrofuran-3-ylmethoxy]-N-{(1R)-1-[6-(trifluoromethyl)pyridazin-3-yl]ethyl}benzamide], for which the pIC50 at human P2X3 receptor (setting [1]) is 7.25; on human P2X2/3 receptor, 6.03.

Turning to `Cc1cnc(-c2cc(OCC3(N(C)C)CC3)cc(C(=O)N[C@H](C)c3cnc(C(F)(F)F)nc3)c2)s1` [Example 213, 3-{[1-(dimethylamino)cyclopropyl]methoxy}-5-(5-methyl-1,3-thiazol-2-yl)-N-{(1R)-1-[2-(trifluoromethyl)pyrimidin-5-yl]ethyl} benzamide], the pIC50 at human P2X3 receptor (setting [1]) was 8.30; on human P2X2/3 receptor it was 7.09.

`Cc1ncc([C@@H](C)NC(=O)c2cc(OC3CCN(CC(F)(F)F)CC3)cc(-c3ncc(C)s3)c2)cn1` [Example 315, N-[(1R)-1-(2-methylpyrimidin-5-yl)ethyl]-3-(5-methyl-1,3-thiazol-2-yl)-5-{[1-(2,2,2-trifluoroethyl)piperidin-4-yl]oxy}benzamide]: the pIC50 was 8.10 on human P2X3 receptor (setting [1]) and 6.80 at human P2X2/3 receptor.

Regarding `Cc1cnc(-c2cc(OC[C@H]3CN(C)CCO3)cc(C(=O)NCc3cnc(C(F)(F)F)nc3)c2)s1` [Example 372, 3-{[(2R)-4-methylmorpholin-2-yl]methoxy}-5-(5-methyl-1,3-thiazol-2-yl)-N-{[2-(trifluoromethyl)pyrimidin-5-yl]methyl}benzamide], the pIC50 on human P2X3 receptor (setting [1]) is 7.72; at human P2X2/3 receptor it was 5.92.

Regarding `CCc1cnc(-c2cc(OC[C@@H]3CCCO3)cc(C(=O)N[C@H](C)c3cnc(C)cn3)c2)s1` [Example 283, 3-(5-ethyl-1,3-thiazol-2-yl)-N-[(1R)-1-(5-methylpyrazin-2-yl)ethyl]-5-[(2S)-tetrahydrofuran-2-ylmethoxy]benzamide], the pIC50 on human P2X3 receptor was 8.00; on human P2X2/3 receptor it was 6.42.

With `Cc1ccc(CNC(=O)c2cc(OC3COC3)cc(-c3ncc(C)s3)c2)nn1` [Example 45, N-[(6-Methylpyridazin-3-yl)methyl]-3-(5-methyl-1,3-thiazol-2-yl)-5-(oxetan-3-yloxy)benzamide], the pIC50 was 6.67 at human P2X3 receptor (setting [1]) and 5.82 on human P2X2/3 receptor.

Take `COc1ccc(CNC(=O)c2cc(OC3CCOCC3)cc(-c3ncc(C)s3)c2)nn1` [Example 88, N-[(6-Methoxypyridazin-3-yl)methyl]-3-(5-methyl-1,3-thiazol-2-yl)-5-(tetrahydro-2H-pyran-4-yloxy)benzamide]: the pIC50 on human P2X3 receptor (setting [1]) was 7.52; at human P2X2/3 receptor it was 6.66.

With `Cc1cnc(-c2cc(OC3CN(C)C3)cc(C(=O)N[C@H](C)c3ccc(C(F)(F)F)nn3)c2)s1` [Example 211, 3-[(1-methylazetidin-3-yl)oxy]-5-(5-methyl-1,3-thiazol-2-yl)-N-{(1R)-1-[6-(trifluoromethyl)pyridazin-3-yl]ethyl} benzamide], the pIC50 at human P2X3 receptor (setting [1]) is 6.40; at human P2X2/3 receptor, no more than 5.00.

Turning to `CC(C)c1cnc(-c2cc(OC[C@H]3CCOC3)cc(C(=O)N[C@H](C)c3cnc(C(F)(F)F)nc3)c2)s1` [Example 281, 3-[5-(propan-2-yl)-1,3-thiazol-2-yl]-5-[(3S)-tetrahydrofuran-3-ylmethoxy]-N-{(1R)-1-[2-(trifluoromethyl)pyrimidin-5-yl]ethyl}benzamide], the pIC50 was 7.59 on human P2X3 receptor and 6.70 on human P2X2/3 receptor.

Regarding `CCOC(=O)N1CC[C@H](Oc2cc(C(=O)N[C@H](C)c3cnc(C(F)(F)F)nc3)cc(-c3ncc(C)s3)c2)C1` [Example 228, Ethyl (3S)-3-[3-(5-methyl-1,3-thiazol-2-yl)-5-({(1R)-1-[2-(trifluoromethyl)pyrimidin-5-yl]ethyl}carbamoyl)phenoxy]pyrrolidine-1-carboxylate], the results for the pIC50 at human P2X3 receptor (setting [1]) and on human P2X2/3 receptor were 8.30 and 7.27, respectively.

`Cc1cnc(-c2cc(OC3COC3)cc(C(=O)NC(C)c3ncc(Cl)cc3F)c2)s1` (centres unmarked) [Example 44, N-[1-(5-Chloro-3-fluoropyridin-2-yl)ethyl]-3-(5-methyl-1,3-thiazol-2-yl)-5-(oxetan-3-yloxy)benzamide]: the pIC50 at human P2X3 receptor (setting [1]) was 7.96; at human P2X2/3 receptor it was 6.43.

For the molecule `CCc1cnc(-c2cc(OC3CCOCC3)cc(C(=O)N[C@H](C)c3ccc(C)nn3)c2)s1` [Example 128, 3-(5-Ethyl-1,3-thiazol-2-yl)-N-[(1R)-1-(6-methylpyridazin-3-yl)ethyl]-5-(tetrahydro-2H-pyran-4-yloxy)benzamide], the pIC50 on human P2X3 receptor (setting [1]) is 8.00; at human P2X2/3 receptor, 7.04.

With `Cc1cnc(-c2cc(O[C@@H]3CCOC3)cc(C(=O)N[C@H](C)c3nnc(C)s3)c2)s1` [Example 20, N-[(1R)-1-(5-methyl-1,3,4-thiadiazol-2-yl)ethyl]-3-(5-methyl-1,3-thiazol-2-yl)-5-[(3R)-tetrahydrofuran-3-yloxy]benzamide], the pIC50 is 7.46 on human P2X3 receptor (setting [1]) and 6.31 at human P2X2/3 receptor.

As to `Cc1ccc(CNC(=O)c2cc(OC[C@H]3CCOC3)cc(-c3ncc(C)s3)c2)nn1` [Example 66, N-[(6-Methylpyridazin-3-yl)methyl]-3-(5-methyl-1,3-thiazol-2-yl)-5-[(3S)-tetrahydrofuran-3-ylmethoxy]benzamide], the pIC50 on human P2X3 receptor (setting [1]) is 7.46; at human P2X2/3 receptor it was 5.20.

Values taken from patent publication US10174016B2 (BAYER AKTIENGESELLSCHAFT, priority 2014, dated 2019).
